#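 Following 48 hours of exposure in 96-well plates, responses at five concentrations were used to interpolate endpoints linearly. At the GI50, growth is halved. TGI is the concentration that stops growth completely.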
# How the values were obtained:
# Experiment in all cases: DTP human tumour cell line panel, 48 h
# SNB-75 CNS = test system: SNB-75 CNS
# NCI-H23 lung = test system: NCI-H23 lung
# M14 melanoma = test system: M14 melanoma
# UACC-62 melanoma = test system: UACC-62 melanoma
# MOLT-4 leukemia = test system: MOLT-4 leukemia
# SK-MEL-28 melanoma = test system: SK-MEL-28 melanoma
# SK-MEL-2 melanoma = test system: SK-MEL-2 melanoma
# SF-295 CNS = test system: SF-295 CNS
# OVCAR-8 ovarian = test system: OVCAR-8 ovarian
# OVCAR-3 ovarian = test system: OVCAR-3 ovarian
Compound,TGI (SNB-75 CNS) [µM],TGI (NCI-H23 lung) [µM],TGI (M14 melanoma) [µM],TGI (UACC-62 melanoma) [µM],TGI (MOLT-4 leukemia) [µM],TGI (SK-MEL-28 melanoma) [µM],TGI (SK-MEL-2 melanoma) [µM],TGI (SF-295 CNS) [µM],TGI (OVCAR-8 ovarian) [µM],TGI (OVCAR-3 ovarian) [µM],GI50 (SNB-75 CNS) [µM],GI50 (NCI-H23 lung) [µM],GI50 (M14 melanoma) [µM],GI50 (UACC-62 melanoma) [µM],GI50 (MOLT-4 leukemia) [µM],GI50 (SK-MEL-28 melanoma) [µM],GI50 (SK-MEL-2 melanoma) [µM],GI50 (SF-295 CNS) [µM],GI50 (OVCAR-8 ovarian) [µM],GI50 (OVCAR-3 ovarian) [µM]
Cc1ccc(NC(=O)CC2Sc3ccccc3NC2=O)c(C)c1 (stereo not given),19.2,33.7,36.5,48.9,72.9,75.9,18.2,40.2,37.4,28.6,,,,,,,,,,
Cc1cc(Cc2cc(C)c(NC(=O)C(=O)C3CCC4=C(SC5C=CC=CC5N4)C3=O)c(C(C)C)c2)cc(C(C)C)c1NC(=O)C(=O)C1CCC2=C(SC3C=CC=CC3N2)C1=O (stereo not given),> 100,> 100,> 100,> 100,> 100,> 100,> 100,> 100,> 100,> 100,,,,,,,,,,
c1ccc(CN2COc3c(ccc4c3OCN(Cc3ccccc3)C4)C2)cc1,> 100,> 100,> 100,4.24,> 100,> 100,> 100,> 100,> 100,> 89.8,2.09,3.68,0.49,0.937,0.409,1.26,3.98,0.554,0.391,0.64
C=CC(=O)Nc1cc(C)ccc1Nc1nc(Nc2cc(OC)ncc2C)ncc1C(F)(F)F,1.45,> 22.9,0.686,0.71,> 100,1.08,1.85,> 100,> 100,> 100,0.285,0.635,0.0668,0.0725,3.55,0.0883,0.313,2.84,2.83,1.4
CCN(CC)CCCNCc1cc(-c2ccccc2)nc2ccccc12,35.8,85.2,14.4,8.37,> 100,22.4,22.9,44.7,10.6,> 100,12.3,6.07,4.63,2.55,0.751,10.2,10.2,16.5,3.21,4.13
O=C(O)CCC(N=Cc1nc(-c2ccccc2)oc1O)C(=O)O (stereo not given),> 100,> 100,> 100,> 100,> 100,> 100,> 100,> 100,> 100,> 100,,,,,,,,,,
O=c1cc(-c2cccc3c2Sc2ccccc2S3)oc(N2CCOCC2)c1,19.9,36.9,24.3,22.1,25.5,24.1,19.3,24.9,45.7,21.9,4.97,15.5,11.1,6.55,7.34,11.1,5.71,11.5,12.9,10.1
COC(=O)C(C(=O)C(=O)Nc1ccc([N+](=O)[O-])cc1[N+](=O)[O-])c1nc2ccc(Cl)cc2[nH]c1=O (stereo not given),> 100,> 100,> 100,> 100,> 100,> 100,> 100,> 100,> 100,> 100,,,,,,,,,,
CN(C)CCNC(=O)c1cccc(N(C)C(=O)c2ccccc2)c1[N+](=O)[O-],> 100,> 100,> 100,> 100,> 100,> 100,> 100,> 100,> 100,> 100,,,,,,,,,,
O=C(Nc1ccncc1)C(=O)c1cn(S(=O)(=O)c2ccc(Cl)cc2)c2ccccc12,10.9,33.1,> 52.1,14.2,> 100,> 50.4,27.3,14.9,97.1,9.44,1.23,0.425,0.634,0.503,3.63,1.06,3.24,1.68,1.63,0.538
CCN(CC)CC(O)CNc1c2ccc([N+](=O)[O-])cc2nc2cc(OC)c(OC)cc12 (stereo not given),1.88,0.705,1.55,1.8,12.4,1.93,0.659,2.06,11,0.543,0.488,0.22,0.368,0.453,0.376,0.47,0.256,0.41,0.55,0.207
N=c1ccn(O)cc1/C=C1/C(=O)Nc2ccccc21,> 100,> 100,> 100,> 100,> 100,> 100,> 100,> 100,> 100,> 100,> 100,> 100,> 100,> 100,> 100,> 100,> 100,> 100,> 100,> 100
